Data from patent US20140179518A1, “Pesticidal Mixtures Comprising Cyanosulfoximine Compounds” (BASF SE, priority 2007, published 2014).
Like-named read-outs stand apart in the source and are kept apart here.

Experiments:
Format in all cases: cell-based
Settings in all cases: single active
Botrytis cinerea = test: Activity against the grey mold Botrytis cinerea in the microtiterplate test (Botrci)
Septoria tritici = test: Activity against leaf blotch on wheat caused by Septoria tritici (Septtr), microtiter plate
Phytophthora infestans = system: Phytophthora infestans
Pyricularia oryzae = system: Pyricularia oryzae
[1] = 4 ppm, 405 nm, 7 days after inoculation
[2] = 63 ppm, 405 nm, 7 days after inoculation

`Fc1ccc([C@]2(Cn3cncn3)O[C@H]2c2ccccc2Cl)cc1` (racemic) [Epoxiconazol, (2RS,3SR)-1-[3-(2-chlorophenyl)-2,3-epoxy-2-(4-fluorophenyl)propyl]-1H-1,2,4-triazole] gave an Observed efficacy (Botrytis cinerea; 0.063 ppm, 7 days) of 3% and an Observed efficacy (Septoria tritici; 0.063 ppm, 7 days) of 68%.

In the case of `CC(C)OC(=O)N[C@H](C(=O)N[C@H](C)c1nc2ccc(F)cc2s1)C(C)C` [Benthivalicarb, isopropyl {(S)-1-[(1R)-1-(6-fluorobenzothiazol-2-yl)-ethylcarbamoyl]-2-methylpropyl}carbamate], the Observed efficacy (Phytophthora infestans; 0.063 ppm, 7 days) is reported as 65%.

`N#CN=S1(=O)CCCC1Cc1ccc(Cl)nc1` (centres unmarked) [C.I.5] was tested, and the Observed efficacy (Pyricularia oryzae; 16 ppm, 7 days) was 3%, the Observed efficacy (Botrytis cinerea; 16 ppm, 7 days) was 0% and the Observed efficacy (Phytophthora infestans; 1 ppm, 7 days) was 0%. For the same compound, the Observed efficacy (Septoria tritici; 0.25 ppm, 7 days) was 0% and the Observed efficacy (Septoria tritici; [1]) was 2%.

With `CC(c1ccc(C(F)(F)F)nc1)S(C)(=O)=NC#N` (centres unmarked) [C.I.10] the Observed efficacy (Botrytis cinerea; 4 ppm, 7 days) was 3%, the Observed efficacy (Phytophthora infestans; 1 ppm, 7 days) was 0% and the Observed efficacy (Septoria tritici; 1 ppm, 7 days) was 0%. It also gave an Observed efficacy (Septoria tritici; [1]) of 2%.

Work on `CCNC(=O)NC(=O)C(C#N)=NOC` [Cymoxanil, 1-(2-cyano-2-methoxyiminoacetyl)-3-ethylurea] yielded an Observed efficacy (Pyricularia oryzae; [2]) of 8%, an Observed efficacy (Botrytis cinerea; [2]) of 17% and an Observed efficacy (Phytophthora infestans; 0.25 ppm, 405 nm, 7 days after inoculation) of 32%.

`N#Cc1sc2c(=O)c3ccccc3c(=O)c=2sc1C#N` [Dithianon, 5,10-dioxo-5,10-dihydronaphtho[2,3-b][1,4]dithiin-2,3-dicarbonitrile] was tested, and the Observed efficacy (Botrytis cinerea; 0.25 ppm, 7 days) was 12%.

In the case of `CO/N=C(/C1=NOCCO1)c1ccccc1Oc1ncnc(Oc2ccccc2Cl)c1F` [Fluoxastrobin, (E)-{2-[6-(2-chlorophenoxy)-5-fluoropyrimidin-4-yloxy]phenyl}(5,6-dihydro-1,4,2-dioxazin-3-yl)methanone O-methyloxime], the Observed efficacy (Septoria tritici; 0.016 ppm, 7 days) is reported as 15%.

`COC=C(C(=O)OC)c1ccccc1COc1cccc(C(F)(F)F)n1` [Picoxystrobin, methyl 3-methoxy-2-[2-(6-trifluoromethylpyridin-2-yloxymethyl)phenyl]acrylate] showed an Observed efficacy (Septoria tritici; 0.063 ppm, 7 days) of 63%.

With `Fc1ccc(Oc2ccnc3cc(Cl)cc(Cl)c23)cc1` [Quinoxyfen, 5,7-dichloro-4-(4-fluorophenoxy)quinoline] the Observed efficacy (Pyricularia oryzae; 16 ppm, 7 days) was 4%.

In the case of `CC(C)(C)C(O)(CCc1ccc(Cl)cc1)Cn1cncn1` (centres unmarked) [Tebuconazol, 1-(4-chlorophenyl)-4,4-dimethyl-3-[1,2,4]triazol-1-ylmethylpentan-3-ol], the Observed efficacy (Septoria tritici; 0.25 ppm, 7 days) is reported as 67%.
